Data set [1] can be described thus: refractive index (Na D-line) (dimensionless); xn = mol fraction of the nth substance listed. The settings on record: 293 K, 96.15 kPa, Liquid, Standard Abbe refractometry.
A short description of data set [2]: refractive index (Na D-line) (dimensionless). Conditions: 293 K; 96.15 kPa; Liquid; Standard Abbe refractometry.
The conditions of data set [3]: Liquid, Ebulliometric method (Recirculating still).

± gives the expanded uncertainty stated by the source.

Consider `CN(C)C=O` [dimethylformamide] + Nc1ccccc1, for which the refractive index in data set [1] (x1 = 1) is given as 1.4318 ± 0.004.

On to `CC(C)O` [propan-2-ol] + COc1ccccc1, for which the refractive index in data set [1] (x1 = 1) is recorded as 1.3758 ± 0.004.

As to `CC(C)O` [propan-2-ol], in data set [2], the refractive index amounted to 1.3758 ± 0.004. The “vapor or sublimation pressure” value in data set [3] (354.17 K) was 96.15 ± 0.98 kPa.

In the case of `COc1ccccc1` [anisole] + CC(=O)O, the refractive index is given as 1.5175 ± 0.004 in data set [1] (x2 = 0); 1.5107 ± 0.004 in data set [1] (x2 = 0.0875); 1.503 ± 0.004 in data set [1] (x2 = 0.167); 1.4878 ± 0.004 in data set [1] (x2 = 0.3109); 1.4731 ± 0.004 in data set [1] (x2 = 0.4358); 1.4584 ± 0.004 in data set [1] (x2 = 0.5453). The refractive index was 1.4441 ± 0.004 in data set [1] (x2 = 0.6416); 1.4295 ± 0.004 in data set [1] (x2 = 0.7302); 1.4155 ± 0.004 in data set [1] (x2 = 0.8075); 1.4018 ± 0.004 in data set [1] (x2 = 0.877); 1.3874 ± 0.004 in data set [1] (x2 = 0.9413); 1.3807 ± 0.004 in data set [1] (x2 = 0.9711).

As to `CN(C)C=O` [dimethylformamide], the refractive index in data set [2] amounted to 1.4318 ± 0.004. Also, the “vapor or sublimation pressure” value in data set [3] (424.53 K) and in data set [3] (424.6 K) was 96.15 ± 0.99 kPa each time.

On to `CC(=O)O` [acetic acid], for which the refractive index in data set [2] worked out at 1.3724 ± 0.004. Moreover, the “vapor or sublimation pressure” value in data set [3] (388.91 K) worked out at 96.15 ± 0.98 kPa.

Consider `CC(C)=O` [acetone], for which, in data set [2], the refractive index stood at 1.3606 ± 0.004. Further, the “vapor or sublimation pressure” value in data set [3] (327.9 K) is given as 96.15 ± 0.98 kPa.

With `Nc1ccccc1` [aniline], the refractive index in data set [2] is given as 1.5868 ± 0.004. Moreover, the “vapor or sublimation pressure” value in data set [3] (455.4 K) was determined as 96.15 ± 0.99 kPa.

Turning to `COc1ccccc1` [anisole] + CC(C)=O, the refractive index is 1.5175 ± 0.004 in data set [1] (x2 = 0); 1.5095 ± 0.004 in data set [1] (x2 = 0.0888); 1.4998 ± 0.004 in data set [1] (x2 = 0.1723); 1.4879 ± 0.004 in data set [1] (x2 = 0.3184); 1.4709 ± 0.004 in data set [1] (x2 = 0.4448); 1.459 ± 0.004 in data set [1] (x2 = 0.5541). The refractive index in data set [1] (x2 = 0.6508) came to 1.4441 ± 0.004; in data set [1] (x2 = 0.736), 1.4285 ± 0.004; in data set [1] (x2 = 0.8121), 1.406 ± 0.004; in data set [1] (x2 = 0.8816), 1.3923 ± 0.004; in data set [1] (x2 = 0.9434) it was 1.3746 ± 0.004; in data set [1] (x2 = 0.9725), 1.3678 ± 0.004.

Consider `Nc1ccccc1` [aniline] + CN(C)C=O, for which the refractive index in data set [1] (x2 = 0) is given as 1.5868 ± 0.004; in data set [1] (x2 = 0.0624), 1.5795 ± 0.004; in data set [1] (x2 = 0.1252), 1.5723 ± 0.004; in data set [1] (x2 = 0.2423) it was 1.5575 ± 0.004; in data set [1] (x2 = 0.3527), 1.543 ± 0.004; in data set [1] (x2 = 0.459), 1.5267 ± 0.004. Besides, the refractive index was 1.5119 ± 0.004 in data set [1] (x2 = 0.5592); 1.4975 ± 0.004 in data set [1] (x2 = 0.6561); 1.4799 ± 0.004 in data set [1] (x2 = 0.7474); 1.4638 ± 0.004 in data set [1] (x2 = 0.8363); 1.4477 ± 0.004 in data set [1] (x2 = 0.9206); 1.4401 ± 0.004 in data set [1] (x2 = 0.9602).

As to `CC(=O)O` [acetic acid] + COc1ccccc1, in data set [1] (x1 = 1), the refractive index is recorded as 1.3724 ± 0.004.

Turning to `COc1ccccc1` [anisole], the refractive index in data set [2] came out at 1.5175 ± 0.004. In addition, the “vapor or sublimation pressure” value in data set [3] (424.55 K), in data set [3] (424.61 K) and in data set [3] (424.79 K) was 96.15 ± 0.99 kPa each time.

As for `COc1ccccc1` [anisole] + CC(C)O, the refractive index came to 1.5175 ± 0.004 in data set [1] (x2 = 0); 1.5092 ± 0.004 in data set [1] (x2 = 0.0879); 1.5011 ± 0.004 in data set [1] (x2 = 0.1663); 1.484 ± 0.004 in data set [1] (x2 = 0.3122); 1.4688 ± 0.004 in data set [1] (x2 = 0.4359); 1.4543 ± 0.004 in data set [1] (x2 = 0.5438). Besides, the refractive index is 1.4403 ± 0.004 in data set [1] (x2 = 0.6429); 1.4272 ± 0.004 in data set [1] (x2 = 0.7293); 1.4143 ± 0.004 in data set [1] (x2 = 0.8063); 1.4019 ± 0.004 in data set [1] (x2 = 0.879); 1.3911 ± 0.004 in data set [1] (x2 = 0.9372); 1.3861 ± 0.004 in data set [1] (x2 = 0.9693).

Turning to `CC(C)=O` [acetone] + COc1ccccc1, in data set [1] (x1 = 1), the refractive index is recorded as 1.3606 ± 0.004.
